The values that follow come from patent EP1000039B1 (Wyeth Holdings Corporation, priority 1997, dated 1999).

In assay [1] the target is T1, His-tagged cytoplasmic domain of EGFR (Homo sapiens, UniProt P00533).
T1 construct: containing the EGFR cDNA encoding amino acids 645 - 1186 preceded by Met-Ala-(His)6; Met-Ala-(His)6 (N); made in house; host or cells: Sf9 insect cells, recombinant baculovirus vHcEGFR52
The assay is described as follows: Inhibition of Epidermal Growth Factor Receptor Kinase (EGF-R) using recombinant enzyme, RR-SRC peptide phosphorylation. It is filed as biochemical. As for the experimental part: The enzyme used in this assay is the His-tagged cytoplasmic domain of EGFR. […] Sf9 cells in 100 mm plates were infected at an moi of 10 pfu/cell and cells were harvested 48 h post infection. A cytoplasmic extract was prepared using 1% Triton X-100 and applied to Ni-NTA column. After washing the column with 20 mM imidazole, HcEGFR was eluted with 250 mM imidazole (in 50 mM Na2HPO4, pH 8.0, 300 mM NaCl). Fractions collected were dialyzed against 10 mM HEPES, pH 7.0, 50 mM NaCl, 10% glycerol, 1ug/mL antipain and leupeptin and 0. 1 mM Pefabloc SC. The protein was frozen in dry ice/methanol and stored -70°C.
For the enzyme reaction, 10 uL of each inhibitor (at various concentrations) were added to each well of a 96-well plate. To this was added 3 uL of enzyme (1: 10 dilution in 10mM HEPES, pH 7.4 for final conc. of 1:120). This was allowed to sit for 10 min on ice and was followed by the addition of 5 ul peptide (80 uM final conc.), 10ul of 4X Buffer (Table A), 0.25 uL ^33P-ATP and 12 uL H2O. The reaction was allowed to run for 90 min at room temperature and was followed by spotting the entire volume on to precut P81 filter papers. The filter discs were washed 2X with 0.5% phosphoric acid and radioactivity was measured using a liquid scintillation counter.

Another assay concerns A2780DDP. The assay is described as follows: Inhibition of Cancer Cell Growth (Sulforhodamine B). The following applies: Homo sapiens, 48 hours exposure, read-out: Inhibition of Cancer Cell Growth as Measured by Cell Number (IC50) A2780DDP. The class given is cell-based, Human. On the procedure:
(§1) After 48 hours exposure to test compounds, cells were fixed with trichloroacetic acid, and stained with Sulforhodamine B. After washing with trichloroacetic acid, bound dye was solubilized in 10 mM Tris base and optical density was determined using plate reader. Under conditions of the assay the optical density is proportional to the number of cells in the well. […] The test procedure is described in details by Philip Skehan et. al. J.Natl. Canc. […]

Another assay has as its system A431. The description is as above. The class given is cell-based, Human. To be noted: Homo sapiens, A-431, 48 hours exposure, read-out: Inhibition of Cancer Cell Growth as Measured by Cell Number (IC50) A431. On the procedure:
as §1

For the next assay, the system named is SW620. Described as above. It is filed as cell-based, Human. To be noted: Homo sapiens, SW-620, 48 hours exposure, read-out: Inhibition of Cancer Cell Growth as Measured by Cell Number (IC50) SW620. As for the experimental part: as §1
Another assay concerns MCF7. The description is as above. The class given is cell-based, Human. The following applies: Homo sapiens, 48 hours exposure, read-out: Inhibition of Cancer Cell Growth as Measured by Cell Number (IC50) MCF7. As for the experimental part: as §1
The subject of another assay is A2780S. Described as above. It is filed as cell-based, Human. The following applies: Homo sapiens, 48 hours exposure, read-out: Inhibition of Cancer Cell Growth as Measured by Cell Number (IC50) A2780S. As for the experimental part:
as §1

Another assay concerns MB435. Described as above. It is filed as cell-based, Human. To be noted: Homo sapiens, 48 hours exposure, read-out: Inhibition of Cancer Cell Growth as Measured by Cell Number (IC50) MB435. As for the experimental part:
as §1

In another assay the test system is LOX. Described as above. The class given is cell-based, Human. To be noted: Homo sapiens, 48 hours exposure, read-out: Inhibition of Cancer Cell Growth as Measured by Cell Number (IC50) LOX. As for the experimental part: as §1
Another assay relates to SKBR3. The assay is described as above. The class given is cell-based, Human. To be noted: Homo sapiens, SK-BR-3, 48 hours exposure, read-out: Inhibition of Cancer Cell Growth as Measured by Cell Number (IC50) SKBR3. On the procedure: as §1
Where [2] appears, read: recombinant enzyme, average of the number of tests, read-out: IC50.

SMILES strings stand for the structures. Values after ≈ are worked out from the molar mass of the structure shown. Read-outs that look alike come from different tables or passages of the source. Some results are limits rather than exact numbers.

T1 sequence (P00533 669-1210): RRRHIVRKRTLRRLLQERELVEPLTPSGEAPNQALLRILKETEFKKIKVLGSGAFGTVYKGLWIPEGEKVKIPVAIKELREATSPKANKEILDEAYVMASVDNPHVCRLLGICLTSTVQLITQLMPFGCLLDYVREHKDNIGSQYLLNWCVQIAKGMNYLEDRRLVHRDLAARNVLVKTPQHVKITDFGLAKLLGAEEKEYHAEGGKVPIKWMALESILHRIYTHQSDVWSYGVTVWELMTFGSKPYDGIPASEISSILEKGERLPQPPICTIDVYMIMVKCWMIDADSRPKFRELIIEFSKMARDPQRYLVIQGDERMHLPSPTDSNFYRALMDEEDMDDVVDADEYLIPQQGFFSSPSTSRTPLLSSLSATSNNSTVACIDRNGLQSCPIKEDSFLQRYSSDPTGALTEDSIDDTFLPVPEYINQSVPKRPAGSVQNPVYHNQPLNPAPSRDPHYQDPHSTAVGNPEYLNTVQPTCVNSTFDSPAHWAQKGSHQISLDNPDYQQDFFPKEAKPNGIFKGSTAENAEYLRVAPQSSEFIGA

Consider `CNc1c(Nc2ccc3ncnc(Nc4cccc(Br)c4)c3c2)c(=O)c1=O` [Example 50, 3-[4-(3-Bromo-phenylamino)-quinazolin-6-ylamino]-4-methylamino-cyclobut-3-ene-1,2-dione], for which the 50% inhibitory concentration (IC50) was 0.4 nM in assay [1] (setting [2]); above 100 µg/mL in the assay with A2780DDP; above 100 µg/mL in the assay on A431; above 100 µg/mL with SW620; above 100 µg/mL in the assay with MCF7; above 100 µg/mL in the assay on A2780S. For the same compound, the half-maximal inhibitory concentration (IC50) with MB435, in the assay on LOX and with SKBR3 was above 100 µg/mL each time.
With `CCOc1c(Nc2ccc3ncnc(Nc4cccc(Br)c4)c3c2)c(=O)c1=O` [Example 48, 3-[4-(3-Bromo-phenylamino)-quinazolin-6-ylamino]-4-ethoxy-cyclobut-3-ene-1,2-dione], the 50% inhibitory concentration (IC50) was 2 nM in assay [1] (setting [2]); 3.71 µg/mL (≈ 8.45 µM) in the assay on A2780DDP; 3.11 µg/mL (≈ 7.08 µM) with A431; 2.81 µg/mL (≈ 6.4 µM) in the assay on SW620; 5.42 µg/mL (≈ 12.3 µM) in the assay with MCF7; 4.74 µg/mL (≈ 10.8 µM) in the assay with A2780S. Besides, the IC50 with MB435 is 5.48 µg/mL (≈ 12.5 µM); in the assay on LOX it was 3.55 µg/mL (≈ 8.08 µM); with SKBR3, 3.79 µg/mL (≈ 8.63 µM).
In the case of `COCOCC#CC(=O)Nc1ccc2ncnc(Nc3cccc(Br)c3)c2c1` [Example 57, 4-Methoxymethoxy-but-2-ynoic acid [4-(3-bromo-phenylamino)-quinazolin-6-yl]-amide], the IC50 stood at 8 nM in assay [1] (setting [2]); 2.5 µg/mL (≈ 5.67 µM) with A2780DDP; 2.8 µg/mL (≈ 6.35 µM) in the assay on A431; 1.8 µg/mL (≈ 4.08 µM) in the assay on SW620; 8.7 µg/mL (≈ 19.7 µM) with MCF7; 0.7 µg/mL (≈ 1.59 µM) in the assay with A2780S. In addition, the half-maximal inhibitory concentration (IC50) with MB435 was 5.7 µg/mL (≈ 12.9 µM); in the assay with LOX, 0.9 µg/mL (≈ 2.04 µM); in the assay on SKBR3 it was 1.2 µg/mL (≈ 2.72 µM).
As to `CC(C)(C)[Si](C)(C)OCC#CC(=O)Nc1ccc2ncnc(Nc3cccc(Br)c3)c2c1` [Example 15, 4-(tert-Butyl-dimethyl-silanyloxy)-but-2-ynoic acid [4-(3-bromo-phenylamino)quinazolin-6-yl]-amide], the 50% inhibitory concentration (IC50) in assay [1] (setting [2]) worked out at 6 nM; with A2780DDP, 0.05 µg/mL (≈ 0.0978 µM); in the assay on A431 it was 0.04 µg/mL (≈ 0.0782 µM); in the assay with SW620, 0.02 µg/mL (≈ 0.0391 µM); with MCF7 it was 0.45 µg/mL (≈ 0.88 µM); with A2780S, 0.02 µg/mL (≈ 0.0391 µM). The IC50 was found to be 0.42 µg/mL (≈ 0.821 µM) in the assay with MB435, 0.03 µg/mL (≈ 0.0587 µM) in the assay on LOX and 0.38 µg/mL (≈ 0.743 µM) in the assay with SKBR3.
On to `COCCOCC#CC(=O)Nc1ccc2ncnc(Nc3cccc(Br)c3)c2c1` [Example 55, 4-(2-Methoxy-ethoxy)-but-2-ynoic acid [4-(3-bromo-phenylamino)-quinazolin-6-yl]-amide], for which the concentration for half-maximal inhibition (IC50) was 2 nM in assay [1] (setting [2]); 0.5 µg/mL (≈ 1.1 µM) in the assay on A2780DDP; 0.4 µg/mL (≈ 0.879 µM) in the assay with A431; 0.1 µg/mL (≈ 0.22 µM) with SW620; 5 µg/mL (≈ 11 µM) in the assay with MCF7; 0.02 µg/mL (≈ 0.0439 µM) with A2780S. Moreover, the half-inhibitory concentration (IC50) in the assay on MB435 was 2.8 µg/mL (≈ 6.15 µM); with LOX it was 0.2 µg/mL (≈ 0.439 µM); in the assay with SKBR3, 0.3 µg/mL (≈ 0.659 µM).
`CN(C)c1c(Nc2ccc3ncnc(Nc4cccc(Br)c4)c3c2)c(=O)c1=O` [Example 49, 3-[4-(3-Bromo-phenylamino)-quinazolin-6-ylamino]-4-dimethylamino-cyclobut-3-ene-1,2-dione]: the IC50 in [1] (setting [2]) worked out at 100 nM; in the assay with A2780DDP, 3.16 µg/mL (≈ 7.21 µM); in the assay with A431, 2.83 µg/mL (≈ 6.46 µM); with SW620, 3.61 µg/mL (≈ 8.24 µM); with MCF7, 6.72 µg/mL (≈ 15.3 µM); in the assay on A2780S it was 4.81 µg/mL (≈ 11 µM). The results for the concentration for half-maximal inhibition (IC50) in the assay with MB435, with LOX and in the assay on SKBR3 were 5.2 µg/mL (≈ 11.9 µM), 3.48 µg/mL (≈ 7.94 µM) and 3.57 µg/mL (≈ 8.15 µM), respectively.
As for `COCC#CC(=O)Nc1ccc2ncnc(Nc3cccc(Br)c3)c2c1` [Example 23, 4-Methoxy-but-2-ynoic acid [4-(3-bromo-phenylamino)-quinazolin-6-yl]-amide], the IC50 in assay [1] (setting [2]) was determined as 0.31 nM; with A2780DDP it was 0.06 µg/mL (≈ 0.146 µM); in the assay with A431, 0.05 µg/mL (≈ 0.122 µM); with SW620, 0.06 µg/mL (≈ 0.146 µM); in the assay on MCF7, 0.5 µg/mL (≈ 1.22 µM); in the assay on A2780S, 0.12 µg/mL (≈ 0.292 µM). The figures for the IC50 with MB435, with LOX and with SKBR3 were 0.8 µg/mL (≈ 1.95 µM), 0.02 µg/mL (≈ 0.0486 µM) and 0.06 µg/mL (≈ 0.146 µM), respectively.
For the compound `CCN1CCN(CC#CC(=O)Nc2ccc3ncnc(Nc4cccc(Br)c4)c3c2)CC1` [Example 28, 4-(4-Ethyl-piperazin-1-yl)-but-2-ynoic acid [4-(3-bromophenylamino)-quinazolin-6-yl]-amide], the half-inhibitory concentration (IC50) was 5.5 nM in assay [1]; 0.56 µg/mL (≈ 1.13 µM) with A2780DDP; 0.6 µg/mL (≈ 1.22 µM) in the assay on A431; 2.38 µg/mL (≈ 4.82 µM) with SW620; 3.09 µg/mL (≈ 6.26 µM) in the assay with MCF7; 0.84 µg/mL (≈ 1.7 µM) in the assay with A2780S. Besides, the IC50 with MB435 turned out to be 1.61 µg/mL (≈ 3.26 µM); in the assay with LOX, 1.94 µg/mL (≈ 3.93 µM); in the assay on SKBR3, 0.1 µg/mL (≈ 0.203 µM).
For `CC#CC(=O)Nc1ccc2ncnc(Nc3cccc(N(C)C)c3)c2c1` [Example 61, But-2-ynoic acid [4-(3-dimethylamino-phenylamino)-quinazolin-6-yl]-amide], the 50% inhibitory concentration (IC50) worked out at 80 nM in assay [1] (setting [2]); 1.39 µg/mL (≈ 4.02 µM) in the assay on A2780DDP; 0.73 µg/mL (≈ 2.11 µM) in the assay with A431; 0.43 µg/mL (≈ 1.24 µM) with SW620; 3.62 µg/mL (≈ 10.5 µM) with MCF7; 1.86 µg/mL (≈ 5.38 µM) in the assay on A2780S. For the same compound, the IC50 in the assay with MB435 is 4.35 µg/mL (≈ 12.6 µM); in the assay with LOX, 0.5 µg/mL (≈ 1.45 µM); in the assay with SKBR3, 0.04 µg/mL (≈ 0.116 µM).
Consider `O=C(C#CCCl)Nc1ccc2ncnc(Nc3cccc(Br)c3)c2c1` [Example 12, 4-Chloro-but-2-ynoic acid [4-(3-bromo-phenylamino)-quinazolin-6-y]-amide], for which the IC50 in [1] (setting [2]) turned out to be 5 nM; in the assay on A2780DDP, 0.07 µg/mL (≈ 0.168 µM); in the assay on A431, 0.03 µg/mL (≈ 0.0722 µM); in the assay with SW620 it was 0.06 µg/mL (≈ 0.144 µM); in the assay with MCF7 it was 0.49 µg/mL (≈ 1.18 µM); in the assay with A2780S, 0.03 µg/mL (≈ 0.0722 µM). Further, the half-maximal inhibitory concentration (IC50) in the assay with MB435 is 0.39 µg/mL (≈ 0.938 µM); in the assay on LOX, 0.04 µg/mL (≈ 0.0962 µM); in the assay on SKBR3, below 0.01 µg/mL.

The IC50 is the point on the concentration scale where inhibition reaches its midpoint.
